Source: US20050250801A1, “Method of treating cancer with azaspirane compositions” (priority 2003, published 2005)
Where a name gives a salt, the structure may show the parent alone.

Experiment: Excretion of radioactivity after single oral administration to male rats, target dose 1 mg free base/kg
Assay type: in vivo, Sprague Dawley rats
Design: Excretion of Radioactivity: unit not given beside the values
Text: [^14C] N,N,-diethyl-8,8-dipropyl-2-azaspiro[4,5]decane-2-propanamine dimaleate salt, (“Compound II”) with a specific activity of 91 uCi/mg and chemical purity >99%, and non-radiolabeled dimaleate salt of N,N,-diethyl-8,8-dipropyl-2-azaspiro[4,5]decane-2-propanamine dimaleate (Compound 1) chemical purity >98%, respectively, were used in this study. The site of the radiocarbon label in Compound II is depicted by an asterisk in Formula II. The non-radiolabeled material was used for reference purposes. The radiolabeled material was stored at ca […] in the dark and the non-radiolabeled material at ca −20° C. in the dark.
Three healthy male Sprague Dawley rats (Crl:CD(SD)BR), age ca 8-9 weeks, body weights at dosing 237-255 g, were supplied by Charles River (UK) Limited. The animals were housed in holding cages suitable for this species for 8 days prior to use. SDS Rat and Mouse Maintenance Diet No. 1, (Special Diets Services, Witham Essex), and mains quality water were available ad libitum throughout. The diet and water supplied to the animals were routinely analyzed for quality and no problems were detected. Holding and study areas had automatic control of light cycle and temperature. The actual range of temperature measured during the study was 17-25° C. with relative humidity measured at 60%.
The dose was prepared for oral administration on the day of dosing. […]
For each rat, an aliquot of the dose solution was administered orally by gavage. […] For each dose, the combined weight of dose and dosing equipment were recorded prior to dosing and the discharged dosing equipment was weighed after dosing. The concentration of radioactive material in each dose solution was also determined.
Immediately following dosing, the rats were placed into all glass metabolism cages suitable for the quantitative collection of excreta and expired air. All samples were collected into individual, uniquely labeled containers.
[…] The collection containers were cooled by solid CO2 during the first 48 hours after dosing.
[…] Collection containers were cooled by solid CO2 during the first 48 hours.
At the time of each feces collection, each cage was washed with water (ca 750 mL) and the washings were retained for radioassay. During the periods 0-24 h and 24-48 hours after dosing, expired air was passed through 2 serial traps containing ethanolamine:ethoxyethaonol (3:7, v/v) in order to effect the removal of CO2. The trap solvent was sampled for radioassay at the end of each collection period.
At 168 hours post dose, each animal was killed by CO2 narcosis and cervical dislocation. Gastrointestinal tracts were removed and retained separately from the carcasses in preparation for radioassay.
All urine and feces samples were stored frozen ([…]) prior to and after analysis. Cage washes were stored at room temperature until analysis was complete and were then discarded. All carcasses and gastro-intestinal tracts were stored frozen at ca-20° C. prior to analysis.
Duplicate aliquots of urine (ca 0.3 mL) and cage washings (ca 1 mL) were dispensed, diluted to 1 mL with distilled water (if considered necessary) and mixed with Quickzint 1 scintillation fluid (10 mL; Zinsser Analytic Maidenhead, UK).
Feces were homogenised in 1 to 2 volumes of water with the sample and homogenate weight recorded. Duplicate aliquots (ca 0.3) were taken from each sample and dispensed onto combustopads contained in combustocones (Can berra Packard Limited, Pangbourne, UK). When dry, these samples were combusted using a Packard Tri-Carb 306 Automatic Sample Oxidiser. The resultant ^14CO2 generated was collected by absorption in Carbo-Sorb® (8 mL; Can berra Packard Limited) to which Permafluor®E^+ scintillation fluid (10 mL; Can berra Packard Limited) was added.
For each rat, the carcass and gastro-intestinal tract with contents were solubilised in Soluene 350 (Canberra Packard). When dissolved, portions of the digest (ca 0.1 mL) were taken for liquid scintillation spectrometry. […]

Which “Excretion of Radioactivity” value (Feces 72-96 hours, #1 male) does the source give for `CCCC1(CCC)CCC2(CCN(CCCN(CC)CC)C2)CC1` [Compound II, [^14C] N,N,-diethyl-8,8-dipropyl-2-azaspiro[4,5]decane-2-propanamine dimaleate salt] here?
Its value is 7.5.

What about the “Excretion of Radioactivity” value (Feces 72-96 hours, #2 male) of the same compound?
The value was 7.8.

What about the “Excretion of Radioactivity” value (Feces 72-96 hours, #3 male) of the same compound?
The value was 8.0.

And the “Excretion of Radioactivity” value (Feces 72-96 hours, Mean)?
Its value is 7.8.

And the “Excretion of Radioactivity” value (Feces 96-120 hours, #1 male)?
Its value is 5.5.

And the “Excretion of Radioactivity” value (Feces 96-120 hours, #2 male)?
The value was 4.1.

What about the “Excretion of Radioactivity” value (Feces 96-120 hours, #3 male) of the same compound?
Its value is 6.4.

What about the “Excretion of Radioactivity” value (Feces 96-120 hours, Mean) of the same compound?
Its value is 5.3.

And the “Excretion of Radioactivity” value (Feces 120-144 hours, #1 male)?
The value was 3.5.

What about the “Excretion of Radioactivity” value (Feces 120-144 hours, #2 male) of the same compound?
Its value is 3.5.

And the “Excretion of Radioactivity” value (Feces 120-144 hours, #3 male)?
The value was 4.3.

And the “Excretion of Radioactivity” value (Feces 120-144 hours, Mean)?
Its value is 3.8.

What about the “Excretion of Radioactivity” value (Feces 144-168 hours, #1 male) of the same compound?
The value was 3.0.

What about the “Excretion of Radioactivity” value (Feces 144-168 hours, #2 male) of the same compound?
Its value is 3.2.

What about the “Excretion of Radioactivity” value (Feces 144-168 hours, #3 male) of the same compound?
Its value is 3.1.

And the “Excretion of Radioactivity” value (Feces 144-168 hours, Mean)?
Its value is 3.1.

And the “Recovery of Radioactivity” value (GI Tract, at 168 hours, #1 male)?
The value was 13.8 % administered dose.

What about the “Recovery of Radioactivity” value (GI Tract, at 168 hours, #2 male) of the same compound?
Its value is 13.3 % administered dose.

And the “Recovery of Radioactivity” value (GI Tract, at 168 hours, #3 male)?
Its value is 10.5 % administered dose.

What about the “Recovery of Radioactivity” value (GI Tract, at 168 hours, Mean) of the same compound?
Its value is 12.5 % administered dose.

What about the “Recovery of Radioactivity” value (Total, 168 hour collection period, #1 male) of the same compound?
The value was 96.7 % administered dose.

What about the “Recovery of Radioactivity” value (Total, 168 hour collection period, #2 male) of the same compound?
Its value is 103.0 % administered dose.

What about the “Recovery of Radioactivity” value (Total, 168 hour collection period, #3 male) of the same compound?
The value was 103.2 % administered dose.

And the “Recovery of Radioactivity” value (Total, 168 hour collection period, Mean)?
The value was 101.0 % administered dose.

And the “Excretion of Radioactivity” value (Urine 0-6 hours, #1 male)?
The value was 0.1.

What about the “Excretion of Radioactivity” value (Urine 0-168 hours, #1 male) of the same compound?
Its value is 6.9.

What about the “Excretion of Radioactivity” value (Urine 0-168 hours, #2 male) of the same compound?
The value was 8.9.

And the “Excretion of Radioactivity” value (Urine 0-168 hours, #3 male)?
Its value is 9.8.

What about the “Excretion of Radioactivity” value (Urine 0-168 hours, Mean) of the same compound?
The value was 8.5.

And the “Excretion of Radioactivity” value (Urine 6-24 hours, #1 male)?
The value was 0.4.

What about the “Excretion of Radioactivity” value (Urine 6-24 hours, #2 male) of the same compound?
Its value is 0.5.

What about the “Excretion of Radioactivity” value (Urine 6-24 hours, #3 male) of the same compound?
Its value is 0.5.

What about the “Excretion of Radioactivity” value (Urine 6-24 hours, Mean) of the same compound?
The value was 0.5.

And the “Excretion of Radioactivity” value (Urine 24-48 hours, #1 male)?
Its value is 1.0.

What about the “Excretion of Radioactivity” value (Urine 24-48 hours, #2 male) of the same compound?
The value was 1.4.

What about the “Excretion of Radioactivity” value (Urine 24-48 hours, #3 male) of the same compound?
Its value is 1.4.

And the “Excretion of Radioactivity” value (Urine 24-48 hours, Mean)?
Its value is 1.3.

What about the “Excretion of Radioactivity” value (Urine 48-72 hours, #1 male) of the same compound?
Its value is 1.2.

What about the “Excretion of Radioactivity” value (Urine 48-72 hours, #2 male) of the same compound?
Its value is 1.5.

What about the “Excretion of Radioactivity” value (Urine 48-72 hours, #3 male) of the same compound?
Its value is 1.7.

What about the “Excretion of Radioactivity” value (Urine 48-72 hours, Mean) of the same compound?
The value was 1.5.

And the “Excretion of Radioactivity” value (Urine 72-96 hours, #1 male)?
The value was 1.3.

And the “Excretion of Radioactivity” value (Urine 72-96 hours, #2 male)?
Its value is 1.6.

And the “Excretion of Radioactivity” value (Urine 72-96 hours, #3 male)?
The value was 2.0.

And the “Excretion of Radioactivity” value (Urine 72-96 hours, Mean)?
The value was 1.6.

What about the “Excretion of Radioactivity” value (Urine 96-120 hours, #1 male) of the same compound?
The value was 1.2.

What about the “Excretion of Radioactivity” value (Urine 96-120 hours, #2 male) of the same compound?
Its value is 1.5.

What about the “Excretion of Radioactivity” value (Urine 96-120 hours, #3 male) of the same compound?
Its value is 1.6.

What about the “Excretion of Radioactivity” value (Urine 96-120 hours, Mean) of the same compound?
The value was 1.4.

And the “Excretion of Radioactivity” value (Urine 120-144 hours, #1 male)?
The value was 0.9.

And the “Excretion of Radioactivity” value (Urine 120-144 hours, #2 male)?
Its value is 1.3.

And the “Excretion of Radioactivity” value (Urine 120-144 hours, #3 male)?
The value was 1.3.

And the “Excretion of Radioactivity” value (Urine 120-144 hours, Mean)?
Its value is 1.2.

What about the “Excretion of Radioactivity” value (Urine 144-162 hours, #1 male) of the same compound?
The value was 0.8.

And the “Excretion of Radioactivity” value (Urine 144-162 hours, #2 male)?
The value was 1.0.

And the “Excretion of Radioactivity” value (Urine 144-162 hours, #3 male)?
Its value is 1.2.

What about the “Excretion of Radioactivity” value (Urine 144-162 hours, Mean) of the same compound?
Its value is 1.0.

What about the “Dose remaining in the carcass” value (at 168 hours) of the same compound?
Its value is about 13.5%.

And the “Dose remaining in the gastro-intestinal tract” value (at 168 hours)?
The value was about 12.5%.

And the “Radioactive dose recovered in feces, mean” value (by 168 hours after dosing)?
The value was 65.5%.

And the “Radioactive dose recovered in urine, mean” value (by 168 hours after dosing)?
Its value is 8.5%.

What about the “Dose recovered in excreta and cage washings, mean” value (full 168 hour collection period) of the same compound?
The value was 75.0%.

And the “Recovery of administered radioactive dose” value (total, range over animals, 168 hours)?
The value was 96.7-103.2%.

What about the “Dose recovered in the excreta” value (up to 120 hours after dosing) of the same compound?
Its value is about 66%.
